Assay results published in patent publication US5053418A, “Antiprotozoal agents” (Burroughs Wellcome Co., priority 1983, dated 1991).

Tested on: P.yoelii
Assay: In vivo effect on P.yoelii in mice (inhibition of parasitaemia)
Conditions: for inhibition in vivo at 0.5 mg/kg: 0.50 mg/Kg × 7; for inhibition in vivo at 1 mg/kg: 1.0 mg/Kg × 7; for inhibition in vivo at 2.5 mg/kg: 2.5 mg/Kg × 7; for inhibition in vivo at 5 mg/kg: 5.0 mg/Kg × 7
Procedure: The naphthoquinone and the pyridinol were each suspended in 0.25% (w/v) celacol in water by milling for 16-24 hours at 26° C. The suspensions were subsequently serially diluted with 0.25% (w/v) celacol in water. At time 0, 0.1 ml of a suspension of 10^7 P.yoelii-parasitised red blood cells/ml of phosphate buffered saline were injected intravenously into 15-20 g mice through a tail vein. Groups of 5 mice per treatment were dosed orally at times 6, 22, 30, 46, 54, 70 and 78 hours with 0.2 ml of the drug suspension. Tail-blood smears were taken at 96 hours, stained with Giemsa and the percentage of red blood cells infected determined and compared to untreated, infected controls. Percent inhibition was correlated with dose to provide ED50 values for each drug alone. In subsequent experiments dilutions of the two drugs, alone and in combination were used, and the percentage inhibition of parasitaemia and ED50 values (of each drug at fixed concentrations of the other) were determined. The results are shown respectively in Tables V and VI. A number of combinations of clopidol (4-pyridinol) and naphthoquinones were assayed and compared with each drug alone for their antimalarial effect against P.yoelii in vivo by the method of Example 4.

[1] = Plasmodium yoelii, po, 96 h, naphthoquinone alone
[2] = naphthoquinone 0.50 + clopidol 1.4 mg/Kg × 7
[3] = naphthoquinone 0.50 + clopidol 4.3 mg/Kg × 7
[4] = naphthoquinone 1.0 + clopidol 1.4 mg/Kg × 7
[5] = naphthoquinone 1.0 + clopidol 4.3 mg/Kg × 7
[6] = naphthoquinone 2.5 + clopidol 1.4 mg/Kg × 7
[7] = naphthoquinone 2.5 + clopidol 4.3 mg/Kg × 7
[8] = naphthoquinone 5.0 + clopidol 1.4 mg/Kg × 7
[9] = naphthoquinone 5.0 + clopidol 4.3 mg/Kg × 7

O=C1C(O)=C(CCCCCCCCC2CCCCC2)C(=O)c2ccccc21
inhibition in vivo at 0.5 mg/kg [1]: 7%
inhibition in vivo at 1 mg/kg [1]: 19%
% inhibition of parasitaemia (combination) (naphthoquinone 0.50 + clopidol 2.5 mg/Kg × 7): 10%
% inhibition of parasitaemia (combination) (naphthoquinone 0.50 + clopidol 5.0 mg/Kg × 7): 45%
% inhibition of parasitaemia (combination) (naphthoquinone 1.0 + clopidol 2.5 mg/Kg × 7): 31%
% inhibition of parasitaemia (combination) (naphthoquinone 1.0 + clopidol 5.0 mg/Kg × 7): 55%

O=C1C(O)=C(C2CCCCC2)C(=O)c2ccccc21
inhibition in vivo at 1.5 mg/kg (Plasmodium yoelii, po, 96 h, naphthoquinone alone, 1.5 mg/Kg × 7): 1%
inhibition in vivo at 3 mg/kg (Plasmodium yoelii, po, 96 h, naphthoquinone alone, 3.0 mg/Kg × 7): 15%
% inhibition of parasitaemia (combination) (naphthoquinone 1.5 + clopidol 1.9 mg/Kg × 7): 47%
% inhibition of parasitaemia (combination) (naphthoquinone 1.5 + clopidol 3.75 mg/Kg × 7): 76%
% inhibition of parasitaemia (combination) (naphthoquinone 3.0 + clopidol 1.9 mg/Kg × 7): 64%
% inhibition of parasitaemia (combination) (naphthoquinone 3.0 + clopidol 3.75 mg/Kg × 7): 97%

O=C1C(O)=C(C2CCC(c3ccccc3)CC2)C(=O)c2ccccc21 (stereo not drawn)
inhibition in vivo at 0.04 mg/kg (Plasmodium yoelii, po, 96 h, naphthoquinone alone, 0.040 mg/Kg × 7): 0%
inhibition in vivo at 0.05 mg/kg (Plasmodium yoelii, po, 96 h, naphthoquinone alone, 0.050 mg/Kg × 7): 0%
% inhibition of parasitaemia (combination) (naphthoquinone 0.040 + clopidol 1.9 mg/Kg × 7): 23%
% inhibition of parasitaemia (combination) (naphthoquinone 0.040 + clopidol 3.75 mg/Kg × 7): 39%
% inhibition of parasitaemia (combination) (naphthoquinone 0.050 + clopidol 1.9 mg/Kg × 7): 34%
% inhibition of parasitaemia (combination) (naphthoquinone 0.050 + clopidol 3.75 mg/Kg × 7): 73%

CC(C)(C)C1CCC(CC2=C(O)C(=O)c3ccccc3C2=O)CC1 (stereo not drawn)
inhibition in vivo at 0.5 mg/kg [1]: 10%
inhibition in vivo at 1 mg/kg [1]: 19%
% inhibition of parasitaemia (combination) [2]: 17%
% inhibition of parasitaemia (combination) [3]: 61%
% inhibition of parasitaemia (combination) [4]: 52%
% inhibition of parasitaemia (combination) [5]: 93%

CCC1(CC)CCC(C2=C(O)C(=O)c3ccccc3C2=O)CC1
inhibition in vivo at 0.5 mg/kg [1]: 5%
inhibition in vivo at 1 mg/kg [1]: 4%
% inhibition of parasitaemia (combination) [2]: 14%
% inhibition of parasitaemia (combination) [3]: 54%
% inhibition of parasitaemia (combination) [4]: 68%
% inhibition of parasitaemia (combination) [5]: 75%

O=C1C(O)=C(C2CCC(c3ccc(Cl)cc3)CC2)C(=O)c2ccccc21 (stereo not drawn)
inhibition in vivo at 0.01 mg/kg (Plasmodium yoelii, po, 96 h, naphthoquinone alone, 0.010 mg/Kg × 7): 5%
inhibition in vivo at 0.02 mg/kg (Plasmodium yoelii, po, 96 h, naphthoquinone alone, 0.020 mg/Kg × 7): 12%
% inhibition of parasitaemia (combination) (naphthoquinone 0.010 + clopidol 1.4 mg/Kg × 7): 29%
% inhibition of parasitaemia (combination) (naphthoquinone 0.010 + clopidol 4.3 mg/Kg × 7): 68%
% inhibition of parasitaemia (combination) (naphthoquinone 0.020 + clopidol 1.4 mg/Kg × 7): 55%
% inhibition of parasitaemia (combination) (naphthoquinone 0.020 + clopidol 4.3 mg/Kg × 7): 90%

CC(C)(C)OC1CCC(C2=C(O)C(=O)c3ccccc3C2=O)CC1 (stereo not drawn)
inhibition in vivo at 0.13 mg/kg (Plasmodium yoelii, po, 96 h, naphthoquinone alone, 0.13 mg/Kg × 7): 1%
inhibition in vivo at 0.25 mg/kg (Plasmodium yoelii, po, 96 h, naphthoquinone alone, 0.25 mg/Kg × 7): 5%
% inhibition of parasitaemia (combination) (naphthoquinone 0.13 + clopidol 4.3 mg/Kg × 7): 84%
% inhibition of parasitaemia (combination) (naphthoquinone 0.13 + clopidol 13 mg/Kg × 7): 31%
% inhibition of parasitaemia (combination) (naphthoquinone 0.25 + clopidol 4.3 mg/Kg × 7): 97%
% inhibition of parasitaemia (combination) (naphthoquinone 0.25 + clopidol 13 mg/Kg × 7): 80%

CC(=O)OC1=C(C2CCCCC2)C(=O)c2ccccc2C1=O
inhibition in vivo at 2.5 mg/kg [1]: 2%
inhibition in vivo at 5 mg/kg [1]: 3%
% inhibition of parasitaemia (combination) [6]: 3%
% inhibition of parasitaemia (combination) [7]: 50%
% inhibition of parasitaemia (combination) [8]: 22%
% inhibition of parasitaemia (combination) [9]: 86%

CC1(C)CCC(C2=C(O)C(=O)c3ccccc3C2=O)CC1
inhibition in vivo at 2.5 mg/kg [1]: 0%
inhibition in vivo at 5 mg/kg [1]: 0%
% inhibition of parasitaemia (combination) [6]: 22%
% inhibition of parasitaemia (combination) [7]: 45%
% inhibition of parasitaemia (combination) [8]: 46%
% inhibition of parasitaemia (combination) [9]: 73%
